Test results reported in PubChem BioAssay AID1963966 (Molecular Pharmacology Branch, DTP, NCI, 2024).

Tested on: 935938-334-R-J1-PDC spheroids with HUVEC/MSC, viability
Assay: Anticancer human tumor 935938-334-R-J1-PDC patient-derived small intestine adenocarcinoma cell line growth inhibition [PI3K]
Conditions: for viability, T/C: stronger effect = lower value
Summary of the method: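 Combination activity was assessed by viability in multicellular tumor spheroids carrying HUVEC and MSC components. Agents were tested with PI3K inhibitors from a Cmax-based top dose (or 10 microM) downward in half-log increments.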

[1] = curve of first compound, second compound 0.00316 µM
[2] = curve of first compound, second compound 0.01 µM
[3] = curve of first compound, second compound 0.0316 µM
[4] = curve of first compound, second compound 0.1 µM
[5] = curve of first compound, second compound 0.316 µM
[6] = curve of first compound, second compound 1 µM
[7] = second compound 0.00316 µM, first compound 0.0316 µM
[8] = second compound 0.00316 µM, first compound 0.1 µM
[9] = second compound 0.00316 µM, first compound 0.316 µM
[10] = second compound 0.00316 µM, first compound 1 µM
[11] = second compound 0.00316 µM, first compound 3.16 µM
[12] = second compound 0.00316 µM, first compound 10 µM
[13] = second compound 0.01 µM, first compound 0.0316 µM
[14] = second compound 0.01 µM, first compound 0.1 µM
[15] = second compound 0.01 µM, first compound 0.316 µM
[16] = second compound 0.01 µM, first compound 1 µM
[17] = second compound 0.01 µM, first compound 3.16 µM
[18] = second compound 0.01 µM, first compound 10 µM
[19] = second compound 0.0316 µM, first compound 0.0316 µM
[20] = second compound 0.0316 µM, first compound 0.1 µM
[21] = second compound 0.0316 µM, first compound 0.316 µM
[22] = second compound 0.0316 µM, first compound 1 µM
[23] = second compound 0.0316 µM, first compound 3.16 µM
[24] = second compound 0.0316 µM, first compound 10 µM
[25] = second compound 0.1 µM, first compound 0.0316 µM
[26] = second compound 0.1 µM, first compound 0.1 µM
[27] = second compound 0.1 µM, first compound 0.316 µM
[28] = second compound 0.1 µM, first compound 1 µM
[29] = second compound 0.1 µM, first compound 3.16 µM
[30] = second compound 0.1 µM, first compound 10 µM
[31] = second compound 0.316 µM, first compound 0.0316 µM
[32] = second compound 0.316 µM, first compound 0.1 µM
[33] = second compound 0.316 µM, first compound 0.316 µM
[34] = second compound 0.316 µM, first compound 1 µM
[35] = second compound 0.316 µM, first compound 3.16 µM
[36] = second compound 0.316 µM, first compound 10 µM
[37] = second compound 1 µM, first compound 0.0316 µM
[38] = second compound 1 µM, first compound 0.1 µM
[39] = second compound 1 µM, first compound 0.316 µM
[40] = second compound 1 µM, first compound 1 µM
[41] = second compound 1 µM, first compound 3.16 µM
[42] = second compound 1 µM, first compound 10 µM
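Also: compound exposure lasted seven days before viability was read.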
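For viability, T/C in this document: percent of vehicle DMSO treated spheroid viability so 100% = untreated.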

For `C[C@@H](NC(=O)c1ncnc(N)c1Cl)c1ncc(C(=O)Nc2cc(C(F)(F)F)c(Cl)cn2)s1` + CC(Nc1ccc2c(c1)OCCn1cc(N3C(=O)OCC3C(F)F)nc1-2)C(N)=O, the IC50 [1] was over 10 µM, the IC50 [2] was over 10 µM and the IC50 [3] was over 10 µM. The IC50 [4] was over 10 µM, the IC50 [5] was 9.36 µM and the IC50 [6] was 9.57 µM. The viability, T/C [7] was 97.2%, the viability, T/C [8] was 92.4% and the viability, T/C [9] was 104%. It also gave a viability, T/C [10] of 110%, a viability, T/C [11] of 87.5% and a viability, T/C [12] of 99.4%. For the same compound, the viability, T/C [13] was 95.3%, the viability, T/C [14] was 88.6% and the viability, T/C [15] was 105%. The viability, T/C [16] was 107%, the viability, T/C [17] was 111% and the viability, T/C [18] was 90.5%. For the same compound, the viability, T/C [19] was 94.8%, the viability, T/C [20] was 88.8% and the viability, T/C [21] was 92.7%. For the same compound, the viability, T/C [22] was 113%, the viability, T/C [23] was 99.6% and the viability, T/C [24] was 80.3%. The viability, T/C [25] was 89%, the viability, T/C [26] was 98.4% and the viability, T/C [27] was 100%. It also gave a viability, T/C [28] of 107%, a viability, T/C [29] of 92.6% and a viability, T/C [30] of 85.6%. The viability, T/C [31] was 108%, the viability, T/C [32] was 111% and the viability, T/C [33] was 83.7%. The viability, T/C [34] was 79%, the viability, T/C [35] was 104% and the viability, T/C [36] was 47.2%. For the same compound, the viability, T/C [37] was 66.7%, the viability, T/C [38] was 95.4% and the viability, T/C [39] was 78.4%. For the same compound, the viability, T/C [40] was 86.5%, the viability, T/C [41] was 90% and the viability, T/C [42] was 48.7%.
`CCCS(=O)(=O)Nc1ccc(F)c(C(=O)c2c[nH]c3ncc(-c4ccc(Cl)cc4)cc23)c1F` + CC(Nc1ccc2c(c1)OCCn1cc(N3C(=O)OCC3C(F)F)nc1-2)C(N)=O showed an IC50 [1] of 6.91 µM, an IC50 [2] of 7.58 µM and an IC50 [3] of 7.08 µM. It also gave an IC50 [4] of 6.88 µM, an IC50 [5] of 5.83 µM and an IC50 [6] of 5.37 µM. It also gave a viability, T/C [7] of 100%, a viability, T/C [8] of 101% and a viability, T/C [9] of 162%. For the same compound, the viability, T/C [10] was 103%, the viability, T/C [11] was 92.6% and the viability, T/C [12] was 30.3%. It also gave a viability, T/C [13] of 136%, a viability, T/C [14] of 89.5% and a viability, T/C [15] of 136%. It also gave a viability, T/C [16] of 103%, a viability, T/C [17] of 118% and a viability, T/C [18] of 28.9%. The viability, T/C [19] was 92.3%, the viability, T/C [20] was 101% and the viability, T/C [21] was 98.3%. The viability, T/C [22] was 110%, the viability, T/C [23] was 100% and the viability, T/C [24] was 28.6%. The viability, T/C [25] was 93.6%, the viability, T/C [26] was 78.1% and the viability, T/C [27] was 104%. It also gave a viability, T/C [28] of 118%, a viability, T/C [29] of 88.5% and a viability, T/C [30] of 31.3%. For the same compound, the viability, T/C [31] was 84.2%, the viability, T/C [32] was 92.4% and the viability, T/C [33] was 84.6%. It also gave a viability, T/C [34] of 102%, a viability, T/C [35] of 78.9% and a viability, T/C [36] of 24.6%. For the same compound, the viability, T/C [37] was 72.5%, the viability, T/C [38] was 66.9% and the viability, T/C [39] was 86.5%. The viability, T/C [40] was 62.9%, the viability, T/C [41] was 77% and the viability, T/C [42] was 22.9%.
With `Cn1cnc2c(F)c(Nc3ccc(Br)cc3Cl)c(C(=O)NOCCO)cc21` the viability, T/C (compound 0.03 µM) was 59% [middle of 4 runs], the viability, T/C (compound 0.0949 µM) was 48.3% [middle of 4 runs] and the viability, T/C (compound 0.3 µM) was 33.4% [middle of 4 runs]. The viability, T/C (compound 0.949 µM) was 27.6% [middle of 4 runs], the viability, T/C (compound 3 µM) was 20.4% [middle of 4 runs] and the IC50 (curve of compound) was 55.5 nM [middle of 4 runs].
`CC(C)n1nc(-c2ccc3oc(N)nc3c2)c2c(N)ncnc21` + COc1c(OCCCN2CCOCC2)ccc2c3n(c(=NC(=O)c4cnc(N)nc4)nc12)CCN3 showed an IC50 [1] of over 0.1 µM, an IC50 [2] of 0.0818 µM and an IC50 [3] of 0.0266 µM. The IC50 [4] was under 0.000316 µM, the IC50 [5] was under 0.000316 µM and the IC50 [6] was under 0.000316 µM. The viability, T/C (second compound 0.00316 µM, first compound 0.000316 µM) was 86.9%, the viability, T/C (second compound 0.00316 µM, first compound 0.001 µM) was 110% and the viability, T/C (second compound 0.00316 µM, first compound 0.00316 µM) was 106%. It also gave a viability, T/C (second compound 0.00316 µM, first compound 0.01 µM) of 99.9%, a viability, T/C [7] of 85.3% and a viability, T/C [8] of 54.8%. For the same compound, the viability, T/C (second compound 0.01 µM, first compound 0.000316 µM) was 94.5%, the viability, T/C (second compound 0.01 µM, first compound 0.001 µM) was 83.2% and the viability, T/C (second compound 0.01 µM, first compound 0.00316 µM) was 92.6%. It also gave a viability, T/C (second compound 0.01 µM, first compound 0.01 µM) of 89.5%, a viability, T/C [13] of 79.6% and a viability, T/C [14] of 43.4%. It also gave a viability, T/C (second compound 0.0316 µM, first compound 0.000316 µM) of 83.9%, a viability, T/C (second compound 0.0316 µM, first compound 0.001 µM) of 107% and a viability, T/C (second compound 0.0316 µM, first compound 0.00316 µM) of 92.7%. For the same compound, the viability, T/C (second compound 0.0316 µM, first compound 0.01 µM) was 68%, the viability, T/C [19] was 50.2% and the viability, T/C [20] was 35.1%. The viability, T/C (second compound 0.1 µM, first compound 0.000316 µM) was 45.1%, the viability, T/C (second compound 0.1 µM, first compound 0.001 µM) was 59.4% and the viability, T/C (second compound 0.1 µM, first compound 0.00316 µM) was 39.2%. The viability, T/C (second compound 0.1 µM, first compound 0.01 µM) was 48.2%, the viability, T/C [25] was 36.9% and the viability, T/C [26] was 34.8%. It also gave a viability, T/C (second compound 0.316 µM, first compound 0.000316 µM) of 36.3%, a viability, T/C (second compound 0.316 µM, first compound 0.001 µM) of 38.9% and a viability, T/C (second compound 0.316 µM, first compound 0.00316 µM) of 34.5%. For the same compound, the viability, T/C (second compound 0.316 µM, first compound 0.01 µM) was 31.1%, the viability, T/C [31] was 42.5% and the viability, T/C [32] was 31.1%. It also gave a viability, T/C (second compound 1 µM, first compound 0.000316 µM) of 42.6%, a viability, T/C (second compound 1 µM, first compound 0.001 µM) of 37.2% and a viability, T/C (second compound 1 µM, first compound 0.00316 µM) of 37.1%. The viability, T/C (second compound 1 µM, first compound 0.01 µM) was 32.5%, the viability, T/C [37] was 26.5% and the viability, T/C [38] was 33.4%.
Work on `CC(Cn1ccc(-c2ccc(C#N)c(Cl)c2)n1)NC(=O)c1cc(C(C)O)[nH]n1` (centres undefined) + CC(Nc1ncnc2nc[nH]c12)c1cc2cccc(Cl)c2c(=O)n1-c1ccccc1 yielded an IC50 [3] of over 10 µM, an IC50 [4] of over 10 µM and an IC50 [5] of over 10 µM. The IC50 [6] was over 10 µM, the IC50 (curve of first compound, second compound 3.16 µM) was over 10 µM and the IC50 (curve of first compound, second compound 10 µM) was over 10 µM. The viability, T/C [19] was 98.6%, the viability, T/C [20] was 93.4% and the viability, T/C [21] was 97.3%. It also gave a viability, T/C [22] of 111%, a viability, T/C [23] of 117% and a viability, T/C [24] of 108%. It also gave a viability, T/C [25] of 124%, a viability, T/C [26] of 85.2% and a viability, T/C [27] of 88.7%. For the same compound, the viability, T/C [28] was 99%, the viability, T/C [29] was 93.9% and the viability, T/C [30] was 113%. For the same compound, the viability, T/C [31] was 94.3%, the viability, T/C [32] was 116% and the viability, T/C [33] was 116%. It also gave a viability, T/C [34] of 98.2%, a viability, T/C [35] of 74.5% and a viability, T/C [36] of 102%. The viability, T/C [37] was 110%, the viability, T/C [38] was 105% and the viability, T/C [39] was 128%. The viability, T/C [40] was 102%, the viability, T/C [41] was 103% and the viability, T/C [42] was 96%. For the same compound, the viability, T/C (second compound 3.16 µM, first compound 0.0316 µM) was 94.5%, the viability, T/C (second compound 3.16 µM, first compound 0.1 µM) was 77.3% and the viability, T/C (second compound 3.16 µM, first compound 0.316 µM) was 105%. The viability, T/C (second compound 3.16 µM, first compound 1 µM) was 91.2%, the viability, T/C (second compound 3.16 µM, first compound 3.16 µM) was 94.6% and the viability, T/C (second compound 3.16 µM, first compound 10 µM) was 104%. It also gave a viability, T/C (second compound 10 µM, first compound 0.0316 µM) of 79.7%, a viability, T/C (second compound 10 µM, first compound 0.1 µM) of 69.8% and a viability, T/C (second compound 10 µM, first compound 0.316 µM) of 82%. It also gave a viability, T/C (second compound 10 µM, first compound 1 µM) of 68.4%, a viability, T/C (second compound 10 µM, first compound 3.16 µM) of 87.6% and a viability, T/C (second compound 10 µM, first compound 10 µM) of 97.8%.
